Measurements published in patent publication US20140066434A1, “Methods and Compositions for Treating Parkinson's Disease” (ARIAD PHARMACEUTICALS, INC., priority 2011, published 2014).

Assay: Phase 1 clinical trial, safety

## Cc1ccc(C(=O)Nc2ccc(CN3CCN(C)CC3)c(C(F)(F)F)c2)cc1C#Cc1cnc2cccnn12 [ponatinib, 3-(Imidazo[1,2-b]pyridazin-3-ylethynyl)-4-methyl-N-(4-((4-methylpiperazin-1-yl)methyl)-3-(trifluoromethyl)phenyl)benzamide]
45 mg cohort
  DLTs: a reversible rash was seen with one patient
60 mg cohort
  DLTs: four patients developed reversible pancreatic related DLT (pancreatitis)
2 to 30 mg cohorts
  DLTs: No DLTs
Phase 1, all cohorts
  drug-related adverse events of any grade: anemia: 12%
  drug-related adverse events of any grade: lipase increase: 12%
  drug-related adverse events of any grade: nausea: 12%
  drug-related adverse events of any grade: rash: 12%
  drug-related adverse events of any grade: thrombocytopenia: 25%
Phase 1, mono-hydrochloride salt
  maximum tolerated dose (MTD): 45 mg
